Experimental data taken from PubChem BioAssay (NCI).
Where “and” joins values, the source holds several entries; their conditions need not be identical. Equal entries are not always repeated.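 Cultured in 96-well plates, cells were exposed to test compound for 48 hours across five concentrations. The concentration for 50% growth inhibition is given as GI50. TGI: total growth inhibition.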

How the values were obtained:
Assay in all cases: DTP human tumour cell line panel, 48 h
[1] = system: OVCAR-3 ovarian
[2] = system: DU-145 prostate
[3] = system: NCI-H23 lung
[4] = system: OVCAR-8 ovarian
[5] = system: EKVX NSCLC
[6] = system: CCRF-CEM leukemia
[7] = system: T-47D breast
[8] = system: U251 CNS
[9] = system: SK-MEL-28 melanoma
[10] = system: BT-549 breast

**Q.** For `C[C@H]1Oc2cc(cnc2N)-c2c(nn(C)c2C#N)CN(C)C(=O)c2ccc(F)cc21`, which GI50 [1] is on record?
**A.** Its GI50 is > 89.3 µM.

**Q.** What about the TGI [1] of the same compound?
**A.** Its TGI is > 100 µM.

**Q.** What about the GI50 [2] of the same compound?
**A.** Its GI50 is 26.6 µM.

**Q.** And the TGI [2]?
**A.** The TGI was > 100 µM.

**Q.** What about the GI50 [3] of the same compound?
**A.** Its GI50 is 59.1 µM.

**Q.** What about the TGI [3] of the same compound?
**A.** The TGI was > 100 µM.

**Q.** What about the GI50 [4] of the same compound?
**A.** The GI50 was 98 µM.

**Q.** And the TGI [4]?
**A.** Its TGI is > 100 µM.

**Q.** And the GI50 [5]?
**A.** Its GI50 is 16 µM.

**Q.** What about the TGI [5] of the same compound?
**A.** Its TGI is > 100 µM.

**Q.** What about the GI50 [6] of the same compound?
**A.** Its GI50 is > 100 µM.

**Q.** What about the TGI [6] of the same compound?
**A.** The TGI was > 100 µM.

**Q.** And the GI50 [7]?
**A.** Its GI50 is 36.2 µM.

**Q.** What about the TGI [7] of the same compound?
**A.** The TGI was > 100 µM.

**Q.** What about the GI50 [8] of the same compound?
**A.** Its GI50 is > 100 µM.

**Q.** What about the TGI [8] of the same compound?
**A.** Its TGI is > 100 µM.

**Q.** And the GI50 [9]?
**A.** The GI50 was 50.3 µM.

**Q.** What about the TGI [9] of the same compound?
**A.** Its TGI is > 100 µM.

**Q.** And the GI50 [10]?
**A.** The GI50 was > 100 µM.

**Q.** And the TGI [10]?
**A.** The TGI was > 100 µM.

**Q.** Which GI50 [1] does the source give for `O=C(c1ccc(F)c(F)c1Nc1ccc(I)cc1F)N1CC(O)([C@@H]2CCCCN2)C1` here?
**A.** Its GI50 is 9.85 µM and > 10 µM.

**Q.** And the TGI [1]?
**A.** The TGI was 22.8 µM and > 10 µM.

**Q.** What about the GI50 [2] of the same compound?
**A.** Its GI50 is 3.32 µM and 3.18 µM.

**Q.** What about the TGI [2] of the same compound?
**A.** The TGI was 19.9 µM and > 10 µM.

**Q.** And the GI50 [3]?
**A.** The GI50 was < 0.0436 µM and 0.129 µM.

**Q.** What about the TGI [3] of the same compound?
**A.** Its TGI is 10 µM and > 10 µM.

**Q.** What about the GI50 [4] of the same compound?
**A.** Its GI50 is 10.5 µM and > 10 µM.

**Q.** What about the TGI [4] of the same compound?
**A.** The TGI was 24.5 µM and > 10 µM.

**Q.** And the GI50 [5]?
**A.** Its GI50 is 0.308 µM.

**Q.** What about the TGI [5] of the same compound?
**A.** The TGI was > 10 µM.

**Q.** What about the GI50 [6] of the same compound?
**A.** Its GI50 is 10.2 µM and > 10 µM.

**Q.** What about the TGI [6] of the same compound?
**A.** Its TGI is 26.7 µM and > 10 µM.

**Q.** And the GI50 [7]?
**A.** Its GI50 is 9.05 µM and > 10 µM.

**Q.** What about the TGI [7] of the same compound?
**A.** The TGI was 23.1 µM and > 10 µM.

**Q.** What about the GI50 [8] of the same compound?
**A.** Its GI50 is 0.492 µM and 0.958 µM.

**Q.** What about the TGI [8] of the same compound?
**A.** The TGI was 17.9 µM and > 10 µM.

**Q.** What about the GI50 [9] of the same compound?
**A.** Its GI50 is < 0.01 µM.

**Q.** What about the TGI [9] of the same compound?
**A.** The TGI was 0.594 µM.

**Q.** What about the GI50 [10] of the same compound?
**A.** The GI50 was 7.52 µM and > 6.99 µM.

**Q.** And the TGI [10]?
**A.** Its TGI is 22 µM and > 10 µM.

**Q.** What does the source list for `COc1ccc(-c2oc(=O)ccc2-c2cc(OC)c(OC)c(OC)c2)cc1F`?
**A.** GI50 [1]: 5.84 µM; TGI [1]: 71.9 µM; GI50 [2]: 32 µM; TGI [2]: > 100 µM; GI50 [3]: 25.9 µM; TGI [3]: > 100 µM; GI50 [4]: 24.1 µM; TGI [4]: > 100 µM; GI50 [5]: 46.4 µM; TGI [5]: > 100 µM; GI50 [6]: 26.6 µM; TGI [6]: > 100 µM; GI50 [7]: 23.9 µM; TGI [7]: > 100 µM; GI50 [8]: 14.5 µM; TGI [8]: > 100 µM; GI50 [9]: 24.7 µM; TGI [9]: > 100 µM; GI50 [10]: 19.7 µM; TGI [10]: 88.4 µM

**Q.** `Cc1ccc(-c2nc3ccc([N+](=O)[O-])cc3[nH]2)cc1` was tested. Which TGI [1] did it give?
**A.** The TGI was > 100 µM.

**Q.** What about the TGI [2] of the same compound?
**A.** The TGI was > 100 µM.

**Q.** What about the TGI [3] of the same compound?
**A.** Its TGI is > 100 µM.

**Q.** What about the TGI [4] of the same compound?
**A.** The TGI was > 100 µM.

**Q.** What about the TGI [5] of the same compound?
**A.** The TGI was > 100 µM.

**Q.** And the TGI [6]?
**A.** The TGI was > 100 µM.

**Q.** And the TGI [7]?
**A.** The TGI was > 100 µM.

**Q.** What about the TGI [8] of the same compound?
**A.** The TGI was > 100 µM.

**Q.** What about the TGI [9] of the same compound?
**A.** The TGI was > 100 µM.

**Q.** And the TGI [10]?
**A.** The TGI was > 100 µM.

**Q.** Which results are given for `Cc1csc(Nc2nc(-c3cccc(Br)c3)nc(C(Cl)(Cl)Cl)n2)n1`?
**A.** GI50 [1]: 1.11 µM; TGI [1]: 3.24 µM; GI50 [2]: 0.419 µM; TGI [2]: 3.21 µM; GI50 [3]: > 100 µM; TGI [3]: > 100 µM; GI50 [4]: > 29.2 µM; TGI [4]: > 100 µM; GI50 [5]: 1.61 µM; TGI [5]: 5.35 µM; GI50 [6]: > 100 µM; TGI [6]: > 100 µM; GI50 [7]: 1.38 µM; TGI [7]: > 26.8 µM; GI50 [8]: 1.83 µM; TGI [8]: > 100 µM; GI50 [9]: 3.48 µM; TGI [9]: > 100 µM; GI50 [10]: > 100 µM; TGI [10]: > 100 µM

**Q.** With `CCN(CC)c1nc(-c2ccc(Cl)cc2Cl)nc2ccccc12` as the compound, how does the GI50 [1] read?
**A.** The GI50 was 15.7 µM.

**Q.** And the TGI [1]?
**A.** Its TGI is 47.2 µM.

**Q.** And the GI50 [2]?
**A.** Its GI50 is 13.6 µM.

**Q.** What about the TGI [2] of the same compound?
**A.** The TGI was > 58.9 µM.

**Q.** What about the GI50 [3] of the same compound?
**A.** The GI50 was 22.8 µM.

**Q.** What about the TGI [3] of the same compound?
**A.** Its TGI is 62.8 µM.

**Q.** And the GI50 [4]?
**A.** The GI50 was 31.9 µM.

**Q.** What about the TGI [4] of the same compound?
**A.** Its TGI is > 100 µM.

**Q.** What about the GI50 [5] of the same compound?
**A.** Its GI50 is 0.333 µM.

**Q.** And the TGI [5]?
**A.** The TGI was 5.05 µM.

**Q.** What about the GI50 [6] of the same compound?
**A.** Its GI50 is 10.4 µM.

**Q.** What about the TGI [6] of the same compound?
**A.** Its TGI is > 100 µM.

**Q.** And the GI50 [7]?
**A.** The GI50 was 18.1 µM.

**Q.** And the TGI [7]?
**A.** The TGI was 49.6 µM.

**Q.** And the GI50 [8]?
**A.** The GI50 was 18 µM.

**Q.** And the TGI [8]?
**A.** The TGI was 37.2 µM.

**Q.** What about the GI50 [9] of the same compound?
**A.** The GI50 was 31.8 µM.

**Q.** What about the TGI [9] of the same compound?
**A.** Its TGI is > 100 µM.

**Q.** What about the GI50 [10] of the same compound?
**A.** The GI50 was 25.4 µM.

**Q.** And the TGI [10]?
**A.** Its TGI is 54.1 µM.

**Q.** Which GI50 [1] does the source give for `N=c1ccn2c(n1)OC1C(O)C(CO)OC12` (stereo not given) here?
**A.** Its GI50 is 163 µM and 99.6 µM.

**Q.** And the TGI [1]?
**A.** Its TGI is > 1000 µM.

**Q.** What about the GI50 [2] of the same compound?
**A.** The GI50 was 2.53 µM and 0.886 µM.

**Q.** And the TGI [2]?
**A.** Its TGI is > 1000 µM.

**Q.** What about the GI50 [3] of the same compound?
**A.** The GI50 was 0.345 µM.

**Q.** And the TGI [3]?
**A.** The TGI was 161 µM and > 100 µM.

**Q.** What about the GI50 [4] of the same compound?
**A.** The GI50 was 0.481 µM.

**Q.** What about the TGI [4] of the same compound?
**A.** The TGI was > 1000 µM.

**Q.** What about the GI50 [5] of the same compound?
**A.** Its GI50 is > 100 µM.

**Q.** What about the TGI [5] of the same compound?
**A.** Its TGI is > 1000 µM.

**Q.** And the GI50 [6]?
**A.** Its GI50 is 0.102 µM and 0.0335 µM.

**Q.** And the TGI [6]?
**A.** The TGI was 92.2 µM.

**Q.** What about the GI50 [7] of the same compound?
**A.** The GI50 was 16.8 µM.

**Q.** What about the TGI [7] of the same compound?
**A.** The TGI was > 1000 µM.

**Q.** And the GI50 [8]?
**A.** Its GI50 is 2.11 µM.

**Q.** And the TGI [8]?
**A.** The TGI was > 1000 µM.

**Q.** What about the GI50 [9] of the same compound?
**A.** Its GI50 is 6.3 µM and > 36.5 µM.

**Q.** And the TGI [9]?
**A.** Its TGI is > 607 µM.

**Q.** What about the GI50 [10] of the same compound?
**A.** Its GI50 is > 100 µM.

**Q.** What about the TGI [10] of the same compound?
**A.** The TGI was > 1000 µM.

**Q.** Which results are given for `CC(C)=CCc1cc(O)cc2c1OC(C=C(C)C)C1=C2C(=O)C2=C(NCCS2(=O)=O)C1=O` (stereo not given)?
**A.** GI50 [1]: 0.456 µM; TGI [1]: 2.01 µM; GI50 [2]: 2.18 µM; TGI [2]: 4.31 µM; GI50 [3]: 1.91 µM; TGI [3]: 6.53 µM; GI50 [4]: 3.24 µM; TGI [4]: 8.71 µM; GI50 [5]: 2.73 µM; TGI [5]: 9.57 µM; GI50 [6]: 4.05 µM; TGI [6]: > 16.7 µM; GI50 [7]: 3.32 µM; TGI [7]: 14.1 µM; GI50 [8]: 2.79 µM; TGI [8]: 5.25 µM; GI50 [9]: 2.39 µM; TGI [9]: 5.13 µM; GI50 [10]: 2.87 µM; TGI [10]: 5.23 µM
